Test results from US9340577B2, “HLA binding motifs and peptides and their uses” (priority 1992, dated 2016).
No end group written: not given here.

Legend:
Test in all cases: biochemical
DR1 (DRB1*0101) = DR1 (DRB1*0101) (Homo sapiens, UniProt P01903+P01911, A100R/D57E/F55L/F60I/F76Y/I96L/L162R/M171V/P40L/Q125E/R42F/V115G/Y59C); format: binding
DR4w4 (DRB1*0401) = DR4w4 (DRB1*0401) (Homo sapiens, UniProt P01903+P01911, A100K/A169T/F76Y/I96L/K127E/L162R/M171V/N62H/P40V/Q125Y/R42H/S133A/S149N/S66Y/V115G/V209L/W38E); format: binding
DR7 (DRB1*0701) = DR7 (DRB1*0701) (Homo sapiens, UniProt P01903+P01911, A100R/A102G/A103Q/D57E/D86V/E43K/F76Y/K127E/L162R/M171V/P40G/Q125H/Q99D/R33Q/R42Y/R54Q/S133A/S66F/T210M/V115G/Y107V/Y59L/Y89S); format: binding
DRB1*0301 = DRB1*0301 (Homo sapiens, UniProt P01903+P01911, A100K/A102G/A103R/A169T/F55Y/I96L/K41T/L162R/M171V/P40S/Q125H/Q178H/Q39Y/R42S/S66N/T106N/T262R/W38E/Y61H); format: binding
DRB1*0405 = DRB1*0405 (Homo sapiens, UniProt P01903+P01911, A100R/A169T/D86S/F76Y/I96L/K127E/L162R/M171V/N62H/P40V/Q125Y/R42H/S133A/S149N/S66Y/V115G/V209L/W38E); format: binding
DRB1*0802 = DRB1*0802 (Homo sapiens, UniProt P01903+P01911, A100R/A103L/A169T/F76Y/H45Y/I96F/K41T/L162R/M171V/P40S/Q125H/Q178H/Q39Y/Q99D/R218S/R42G/S66Y/V115G/W38E); format: binding
DRB1*0901 = DRB1*0901 (Homo sapiens, UniProt P01903+P01911, A100R/A103E/D57H/D86V/F55Y/F60I/F76Y/I96F/K127E/L162R/M171V/P40D/Q125H/Q99R/R33Q/R42F/S133A/S66N/T210M/V115G/W38K/Y107V/Y59G/Y89S); format: binding
DRB1*1201 = DRB1*1201 (Homo sapiens, UniProt P01903+P01911, A100R/A169T/D57E/D86V/F55L/H45Y/K41T/L162R/M171V/P40S/Q125H/Q178H/Q39Y/Q99D/R42G/S66L/T262R/V114A/V67L/W38E/Y59H/Y61H/Y89S); format: binding
DRB1*1302 = DRB1*1302 (Homo sapiens, UniProt P01903+P01911, A100E/A169T/K41T/L162R/M171V/P40S/Q125H/Q178H/Q39Y/Q99D/R42S/S66N/T262R/V115G/W38E/Y61H); format: binding
DRB1*1501 = DRB1*1501 (Homo sapiens, UniProt P01903+P01911); format: binding
DRB4*0101 = DRB4*0101 (Homo sapiens, UniProt P01903+P13762, G164S); format: binding
DRB1*1101 = DRB1*1101 (Homo sapiens, UniProt P01903+P01911, A100R/A169T/A87E/I96F/K41T/L162R/M171V/P40S/Q125H/Q178H/Q39Y/Q99D/R42S/S66Y/T262R/V115G/W38E); settings: Binding affinity DRB1 *1101
DRB5*0101 = DRB5*0101 (Homo sapiens, UniProt P01903+Q30154); settings: Binding affinity DRB5 *0101

Chain of DRB1*1101 (P01903 26-254 limits assumed, other chains not shown): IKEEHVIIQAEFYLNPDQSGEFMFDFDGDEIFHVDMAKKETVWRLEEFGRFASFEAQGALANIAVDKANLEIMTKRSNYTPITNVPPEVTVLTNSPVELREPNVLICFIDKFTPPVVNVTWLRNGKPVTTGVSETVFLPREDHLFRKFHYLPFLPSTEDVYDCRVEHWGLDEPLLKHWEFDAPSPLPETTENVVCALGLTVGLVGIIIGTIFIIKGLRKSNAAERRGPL
Chain of DRB1*1302 (P01903 26-254 limits assumed, other chains not shown): as above
Chain of DRB1*0301 (P01903 26-254 limits assumed, other chains not shown): as above

| Compound | IC50 (DR1 (DRB1*0101)) [nM] | IC50 (DR4w4 (DRB1*0401)) [nM] | IC50 (DR7 (DRB1*0701)) [nM] | IC50 (DRB1*0301) [nM] | IC50 (DRB1*0405) [nM] | IC50 (DRB1*0802) [nM] | IC50 (DRB1*0901) [nM] | IC50 (DRB1*1201) [nM] | IC50 (DRB1*1302) [nM] | IC50 (DRB1*1501) [nM] | IC50 (DRB4*0101) [nM] | IC50 (DRB1*1101) [nM] | IC50 (DRB5*0101) [nM] |
| --- | --- | --- | --- | --- | --- | --- | --- | --- | --- | --- | --- | --- | --- |
| ETCMVIEPPKLRSQT [Peptide 90.0083] | 26 | 1550 | 794 | 275 | 2280 | 4300 | > 20000 | 825 | > 20000 | 670 | 16 | 4740 | 124 |
| CQAIELQLALEALNK [Peptide 90.0014] | 25 | 450 | > 20000 | 466 | 1520 | 3590 | 1780 | 1100 | 214 | 200 | 14 | 3230 | 1910 |
| RGIIILLLIRFRCSK [Peptide 89.0063] | 674 | 883 | 721 | > 20000 | 241 | 6420 | > 20000 | 2010 | 352 | 431 | 283 |  | > 20000 |
| DHDITDDSDIAYKYA [Peptide 90.0117] | > 20000 | 510 | > 20000 | 100 | 2210 | > 20000 |  | > 20000 | 535 | > 20000 | 577 | > 20000 | 6830 |
| DWVMAIFGVNPTVAE [Peptide 89.0079] | 58 | 45 | 108 | 431 | 85 | 6720 | 1620 | 430 | 60 | 26 | 6.5 | 1820 |  |
| LKAICIENNSKTAKR [Peptide 90.0064] | 62 | 36 | 6350 | 86 | 369 |  | > 20000 | 4580 | 144 | 359 | 85 |  |  |
| CMLIQPPKLRSTAAA [Peptide 89.0047] |  | 2380 | 470 | 5760 | > 20000 | 2650 | 7540 | 3690 | 3610 | 2640 | 567 | 982 | 904 |
| SNLLSIPETCMVIEP [Peptide 89.0067] | 347 | 320 |  | > 20000 | 18 | 16800 | 1310 | 3860 | 350 | 510 | 963 | 12800 | > 20000 |
| IVHLKGDPNSLKCLR [Peptide 90.0255] | 229 | 83 | > 20000 | 42 | > 20000 | 2210 | > 20000 | 4650 | 574 | 7830 | 1590 |  | 2560 |
| CC[C@H](C)[C@H](NC(=O)[C@H](Cc1c[nH]c2ccccc12)NC(=O)[C@H](CCC(=O)O)NC(=O)[C@@H]1CCCN1)C(=O)N[C@@H](CCC(N)=O)C(=O)N[C@@H](CCCNC(=N)N)C(=O)N[C@@H](CCC(N)=O)C(=O)N[C@H](C(=O)N[C@H](C(=O)N[C@@H](CC(C)C)C(=O)N[C@@H](CCC(N)=O)C(=O)N[C@@H](Cc1c[nH]cn1)C(=O)N[C@@H](CO)C(=O)N[C@@H](Cc1ccccc1)C(=O)N[C@@H](CC(N)=O)C(=O)O)C(C)C)[C@@H](C)O [Peptide 89.0011] | 2260 | 18 | 6120 | 155 | 259 | 213 | 6180 | 4020 | 473 | 8860 | 4.5 |  | 11800 |
| VDFIDTQLSICEQAE [Peptide 89.0078] |  | 1280 | 426 | 3780 | 284 | 7430 | 6000 | 2020 | 1550 | 609 | 471 | 3920 | 1520 |
| IHFLQGAIISFVNSN [Peptide 89.0089] | 4.2 | 499 | 1020 | > 20000 | 2610 | 1900 |  | 71 | 442 | 54 | 272 |  | > 20000 |
| YFKYFKEDAKKYSKT [Peptide 90.0253] | 4010 | 3620 | > 20000 | 108 | > 20000 |  | > 20000 | > 20000 | > 20000 | > 20000 | > 20000 |  | 289 |
| ENSIQADTEAARALF [Peptide 90.0078] | 3900 | > 20000 |  | 620 | > 20000 | > 20000 | > 20000 | 7440 | > 20000 | > 20000 | > 20000 | > 20000 | > 20000 |
| YFKYFKEDAAKYSKT [Peptide 90.0205] |  | 70 | 3630 | 483 | > 20000 | 6030 |  | 8050 | > 20000 | 3910 | > 20000 | 1890 | 4660 |
| KVAMLDDATHTCWTY [Peptide 90.0105] | 253 | 34 |  | 410 | 279 | 8180 | > 20000 | 9280 | > 20000 | 2230 | 21 | 2260 | > 20000 |
| VEFMSFLTALKRFLQ [Peptide 89.0015] | 19 | 72 | 109 | 347 | 453 | 102 |  | 91 | 9820 | 1840 | 42 | 44 | 19 |
| LKVLIKQHSLYTHLQ [Peptide 89.0061] | 4.3 | 17 | 451 | 1830 | 687 | 57 |  | 33 | 30 | 18 | 11 | 43 |  |
| CC[C@H](C)[C@H](N)C(=O)N[C@@H](CCC(=O)O)C(=O)N[C@@H](Cc1ccccc1)C(=O)N[C@H](C(=O)N[C@H](C(=O)N[C@@H](Cc1ccccc1)C(=O)N[C@@H](CC(C)C)C(=O)NCC(=O)N[C@@H](C)C(=O)N[C@@H](CC(C)C)C(=O)N[C@@H](CCCCN)C(=O)N[C@@H](CO)C(=O)N[C@@H](Cc1ccccc1)C(=O)N[C@@H](CC(C)C)C(=O)N[C@@H](CCCCN)C(=O)O)[C@@H](C)O)[C@@H](C)CC [Peptide 89.0033] | 8.6 | 74 | 410 | 2300 | 1640 |  |  | 410 | > 20000 | 77 | 44 |  | 34 |
